From patent US10370364B1, “Substituted chromenes for treatment of fibrosis or non-alcoholic steatohepatitis” (OSTEONEUROGEN INC., priority 2018, dated 2019)
In brackets after ≈: the same amount, converted by molar mass. Where two headings read alike, the source gives them in different places.

How the values were obtained:
[1] = Metabolic stability in rat liver microsomes with NADPH; type: in vitro ADME; conditions: rat, rat liver microsomes
Protocol: (§1) The compound of the present invention was incubated with rat liver microsomes and NADPH, and then the rate of elimination of the compound was measured, thereby determining the intrinsic clearance value (CLint value) of the compound.

Rat liver microsomes = experiment: as above; type: in vitro ADME; conditions: Rat liver microsomes
Protocol: as §1

[2] = Pharmacokinetics in male SD rats (oral and i.v., various formulations); type: in vivo, rat
Protocol: To examine the pharmacokinetics of the compound after oral administration, rat models were used.
Male SD rats (weighed 250 to 300 g) were divided into several groups, each consisting of 3 rats, […], after which the amount of the compound present in the plasma was measured with the passage of time. […]
For effective formulation of the compound of the present invention, the pharmacokinetics of various formulations after oral administration were examined according to the same method as described in Experimental Example 2-4 above.

CYP2C9 = CYP2C9 (Homo sapiens, UniProt P11712)
A549 cell line = experiment: TGF-β-induced myofibroblast differentiation of A549 cell line; type: cell-based, human; conditions: A549, TGF-β 5 ng/ml, compound 25 or 50 μM, 24 or 48 hours
Protocol: The A549 cell line, which is a lung adenocarcinoma cell line used as a lung EMT-related study model, was seeded into medium, cultured for 24 hours, and then treated with TGF-β (5 ng/ml). Alternatively, the A549 cell line was co-treated with TGF-β and the compound of the present invention (25 or 50 μM in DMSO) and cultured for 24 or 48 hours. Next, the cells were examined with a phase contrast microscope (200×).

STAM mice = experiment: Non-alcoholic steatohepatitis animal model (STAM mice), NAFLD activity score; type: in vivo; conditions: 50 mpk oral, Formulation Example 2, once a day five times a week
Protocol: STAM mice (SMC Laboratories, Inc., Japan), which are non-alcoholic steatohepatitis animal models, were used as experimental animals. These animal models were administered with streptozotocin immediately after birth, and fed with high-fat-diet after 3 weeks. Then, in the mouse model, non-alcoholic steatohepatitis occurred at 6 to 9 weeks, and liver fibrosis, cirrhosis and liver cancer occurred within 9 to 12 weeks.
Over 6 to 9 weeks after administration of streptozotocin, the compound of the present invention, dissolved in a mixture solution of Tween80 and 0.5% CMC aqueous solution (1:99 (v/v)) (Formulation Example 2), was orally administered to the animal models once a day (five times a week). As controls, telmisartan and OCA (obeticholic acid) were administered in the same manner.
At […] after administration of streptozotocin (a time point after 3-week administration of the compound), the mice were sacrificed, the liver of each mouse was dissected, the invasion of inflammatory cells was observed by […] of the liver tissue, and fibrosis of the liver tissue was observed by Sirius Red staining (see FIG. 42). In addition, the degrees of inflammation, fibrosis, liver cell ballooning and adipose accumulation observed were measured, data integration was performed, and the NAFLD (nonalcoholic fatty liver disease) activity score was statistically processed by t-test.

[3] = test system: α-SMA (alpha-smooth muscle actin); experiment: α-SMA expression in ONGHEPA1 cells by immunofluorescent staining; type: cell-based, rat; conditions: TGF-β plus compound 50 μM
Description: In addition, in order to examine whether the above-described effect would be attributable to the effect against epithelial-mesenchymal transition (EMT) (hereinafter referred to as “EMT”), the expression of α-SMA (alpha-smooth muscle actin), which is a representative marker of EMT, in the cells of each test group, was examined by immunofluorescent staining and nuclear staining (DAPI staining).

physchem = experiment: physchem
Protocol: The compound of the present invention was added to phosphate buffer (pH 7.4) at a concentration of 1 mg/ml and stirred. After 16 hours, the sample was filtered through a filter, and the supernatant was analyzed by HPLC-UV, thereby determining the content of compound dissolved.

CYP2D6 = CYP2D6 (Homo sapiens, UniProt P10635)
[4] = male, SD, plasma, iv, 1 mg/kg, rat, 1 mpk i.v, Formulation Example 1
[5] = male, SD, rat, plasma, po, 10 mg/kg, 10 mpk po, Formulation Example 3, NMP/PEG400/Solutol HS/water vehicle
[6] = male, SD, rat, plasma, po, 10 mg/kg, 10 mpk po, Formulation Example 4, NMP/ethanol/PEG200/saline vehicle
[7] = male, SD, rat, plasma, po, 10 mg/kg, 10 mpk po, Formulation Example 5, in 30% HPCD aqueous solution
[8] = male, SD, rat, plasma, po, 200 mg/kg, 200 mpk po, Formulation Example 2

CYP2C9, sequence (P11712 whole entry): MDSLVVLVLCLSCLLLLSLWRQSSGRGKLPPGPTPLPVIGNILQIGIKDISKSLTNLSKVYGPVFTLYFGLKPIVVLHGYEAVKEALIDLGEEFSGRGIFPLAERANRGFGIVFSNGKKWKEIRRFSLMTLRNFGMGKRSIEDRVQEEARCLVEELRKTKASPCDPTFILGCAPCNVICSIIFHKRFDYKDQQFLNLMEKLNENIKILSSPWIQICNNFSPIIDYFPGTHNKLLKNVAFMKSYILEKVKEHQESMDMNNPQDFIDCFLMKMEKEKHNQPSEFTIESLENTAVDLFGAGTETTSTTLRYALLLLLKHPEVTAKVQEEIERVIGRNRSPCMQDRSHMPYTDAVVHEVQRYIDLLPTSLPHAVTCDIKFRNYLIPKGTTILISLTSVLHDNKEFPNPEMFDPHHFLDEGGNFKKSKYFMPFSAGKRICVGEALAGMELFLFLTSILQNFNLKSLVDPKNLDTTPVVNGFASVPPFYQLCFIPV
CYP2D6, sequence (P10635 whole entry): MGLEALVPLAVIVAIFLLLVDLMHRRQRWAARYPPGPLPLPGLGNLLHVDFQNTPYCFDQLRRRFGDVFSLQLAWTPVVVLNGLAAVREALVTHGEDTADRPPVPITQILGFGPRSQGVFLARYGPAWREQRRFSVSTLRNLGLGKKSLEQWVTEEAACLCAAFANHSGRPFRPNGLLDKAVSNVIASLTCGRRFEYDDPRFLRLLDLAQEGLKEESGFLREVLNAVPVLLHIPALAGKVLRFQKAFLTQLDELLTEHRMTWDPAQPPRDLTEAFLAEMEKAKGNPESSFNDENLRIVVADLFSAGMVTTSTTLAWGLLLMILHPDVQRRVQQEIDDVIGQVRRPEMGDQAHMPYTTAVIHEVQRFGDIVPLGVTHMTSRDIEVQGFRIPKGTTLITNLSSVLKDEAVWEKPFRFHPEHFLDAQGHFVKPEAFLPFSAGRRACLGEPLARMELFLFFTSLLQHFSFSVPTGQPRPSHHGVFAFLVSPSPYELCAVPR

## COc1ccc(-c2cc(=O)c3c(O)c(OC)c(OCCN4CCNC(=O)C4)cc3o2)cc1OC [Compound 1, 4-(2-((2-(3,4-dimethoxyphenyl)-5-hydroxy-6-methoxy-4-oxo-4H-chromen-7-yl)oxy)ethyl)piperazin-2-one]
[1]; read-out: CL int
  microsomal CLint: 19.4 µL/min/mg
[1]; read-out: t½
  half-life: 1.19 h
Rat liver microsomes
  Clearance value: Moderate
Rat liver microsomes; NADPH
  metabolic stability (in words): metabolically stable such that it could be comparable with atenolol
[2]; Formulation Example 2 compared to Formulation Example 3, FIG. 25
  plasma profile after oral administration (in words): absorbed rapidly in vivo after oral administration and was maintained in the plasma for a long period of time
[2]; male, SD, plasma, 10 mg/kg, rat, 10 mpk po, Formulation Example 5
  MRT inf: 3.2 ± 0.7 h
[2]; male, SD, plasma, 10 mg/kg, rat, 10 mpk po, Formulation Example 5, read-out: t1/2 (converted)
  half-life: 1.9 ± 0.6 h
[2]; male, SD, plasma, 200 mg/kg, rat, 200 mpk po, Formulation Example 2
  MRT inf: 1.7 ± 0.2 h
[2]; male, SD, plasma, 200 mg/kg, rat, 200 mpk po, Formulation Example 2, read-out: t½ (converted)
  half-life: 1.5 ± 0.4 h
[2]; [4]
  MRT inf: 0.4 h
  Vd: 3.6 ± 0.25 L/kg
[2]; male, SD, plasma, iv, 1 mg/kg, rat, 1 mpk i.v, Formulation Example 1 (100% DMSO)
  C0: 506 ± 130 ng/mL
[2]; male, SD, plasma, iv, 1 mg/kg, rat, 1 mpk i.v, Formulation Example 1, read-out: CLP (converted)
  clearance: 112 mL/min/kg
[2]; male, SD, plasma, iv, 1 mg/kg, rat, 1 mpk i.v, Formulation Example 1, read-out: t1/2 (converted)
  half-life: 0.38 ± 0.03 h
[2]; male, SD, rat, plasma, iv, 1 mg/kg, 1 mpk i.v, Formulation Example 1
  AUC(0-inf): 149 ± 3 ng·h/mL
[2]; male, SD, rat, plasma, iv, 1 mg/kg, rat, 1 mpk i.v, Formulation Example 1, read-out: AUC(0-t)
  AUC(0-t): 147 ± 2.2 ng·h/mL
[2]; male, SD, rat, plasma, po, 10 mg/kg, 10 mpk po, Formulation Example 2
  bioavailability: 1.4%
[2]; male, SD, rat, plasma, po, 10 mg/kg, 10 mpk po, Formulation Example 3
  bioavailability: ~9%
[2]; [5]
  AUC(0-inf): 155 ± 7.5 ng·h/mL
  Tmax: 0.25 ± 0.1 h
[2]; male, SD, rat, plasma, po, 10 mg/kg, 10 mpk po, Formulation Example 4
  bioavailability: ~3%
[2]; [6]
  AUC(0-inf): 46.4 ± 14.1 ng·h/mL
  Tmax: 0.25 h
[2]; male, SD, rat, plasma, po, 10 mg/kg, 10 mpk po, Formulation Example 5
  bioavailability: ~7%
[2]; male, SD, rat, plasma, po, 10 mg/kg, 10 mpk po, Formulation Example 5 (30% (w/v) HPCD aqueous solution)
  Cmax: 393 ± 299 ng/mL
[2]; [7]
  AUC(0-inf): 1080 ± 327 ng·h/mL
  Tmax: 1.3 ± 0.6 h
[2]; male, SD, rat, plasma, po, 10 mg/kg, rat, 10 mpk po, Formulation Example 2 (Tween80: 0.5% CMC 1:99)
  Cmax: 22.3 ± 8.9 ng/mL
[2]; male, SD, rat, plasma, po, 10 mg/kg, rat, 10 mpk po, Formulation Example 2, in Tween80:0.5% CMC aqueous vehicle
  Tmax: 0.4 ± 0.1 h
[2]; male, SD, rat, plasma, po, 10 mg/kg, rat, 10 mpk po, Formulation Example 2, in Tween80:0.5% CMC aqueous vehicle, read-out: AUC(0-t)
  AUC(0-t): 20.4 ± 6.2 ng·h/mL
[2]; male, SD, rat, plasma, po, 10 mg/kg, rat, 10 mpk po, Formulation Example 3 (NMP: PEG400: SOLUTOL HS: water 10:20:20:50)
  Cmax: 62.2 ± 37.5 ng/mL
[2]; male, SD, rat, plasma, po, 10 mg/kg, rat, 10 mpk po, Formulation Example 3, NMP/PEG400/Solutol HS/water vehicle, read-out: AUC(0-t)
  AUC(0-t): 126 ± 19.1 ng·h/mL
[2]; male, SD, rat, plasma, po, 10 mg/kg, rat, 10 mpk po, Formulation Example 4 (NMP: ethanol: PEG200: normal saline 5:10:30:55)
  Cmax: 46.7 ± 8.8 ng/mL
[2]; male, SD, rat, plasma, po, 10 mg/kg, rat, 10 mpk po, Formulation Example 4, NMP/ethanol/PEG200/saline vehicle, read-out: AUC(0-t)
  AUC(0-t): 42.5 ± 16 ng·h/mL
[2]; male, SD, rat, plasma, po, 10 mg/kg, rat, 10 mpk po, Formulation Example 5, in 30% HPCD aqueous solution, read-out: AUC(0-t)
  AUC(0-t): 1000 ± 314 ng·h/mL
[2]; [8]
  AUC(0-inf): 426 ± 67.7 ng·h/mL
  Tmax: 1 h
  bioavailability: 1.4%
[2]; male, SD, rat, plasma, po, 200 mg/kg, rat, 200 mpk po, Formulation Example 2 (Tween80: 0.5% CMC 1:99)
  Cmax: 261 ± 41.4 ng/mL
[2]; male, SD, rat, plasma, po, 200 mg/kg, rat, 200 mpk po, Formulation Example 2, read-out: AUC (0-24)
  AUC(0-t): 420 ± 69.3 ng·h/mL
[2]; male, SD, rat, plasma, po, 200 mg/kg, rat, 200 mpk po, Formulation Example 2, read-out: AUC(0-t)
  AUC(0-t): 420 ± 69.3 ng·h/mL
[2]; male, SD, rat, plasma, po, Formulation Example 2, dose not given
  bioavailability: 1.4%
[2]; rat, 1 mpk i.v, Formulation Example 1
  AUC_% Extrap (obs): 1.8 ± 0.5%
[2]; rat, 10 mpk po, Formulation Example 5
  AUC_% Extrap (obs): 7.0 ± 5.2%
[2]; rat, 200 mpk po, 0.5% CMC and about 1% Tween-80
  absorption after oral administration (in words): absorbed rapidly in vivo after oral administration
[2]; rat, 200 mpk po, Formulation Example 2
  AUC_% Extrap (obs): 1.6 ± 0.7%
CYP2C9
  inhibitory activity against CYP2C9 (in words): slight inhibitory activity
A549 cell line
  myofibroblast differentiation: inhibited
STAM mice
  NAFLD activity score (t-test): statistically significant anti-NASH effects
[3]
  expression of α-SMA: inhibited
physchem; pH 7.4
  solubility in the buffer (in words): lower than that of caffeine, but higher than that of diethyl stilbesterol
physchem; pH 7.4, aqueous buffer, thermodynamic from solid
  solubility at 16 h: 9.59 µg/mL (≈ 20.4 µM)
CYP2D6
  inhibitory activity against CYP2D6 (in words): little or very low inhibitory activity
